Data set [1] is classed as in vitro ADME, mouse.
Data set [2] is classed as in vitro ADME, mouse. This is another data set of the same source.
The subject of a further data set is HepG2 cells. Kind of data set: HepG2 cytotoxicity. Particulars: Homo sapiens.
A further data set in a line: physchem. In kind it is physicochemical.
The subject of another data set is M. tuberculosis (H37Rv). Kind of data set: microbe, parasite or virus in culture. In kind it is cell-based, Mycobacterium tuberculosis. Particulars: Mycobacterium tuberculosis, H37RV.
[3] abbreviates: HepG2, read-out: HepG2 inhibitory concentration (IC50).
[4] abbreviates: pH 7.4, aqueous buffer, kinetic from dmso stock.
Where [5] appears, read: read-out: Wk2_7H9/DPPC/ casitone/ Tyloxapol MIC.
Where [6] appears, read: read-out: Wk2_ 7H9/DPPC/ cholesterol/BSA/ Tyloxapol MIC.
[7] abbreviates: read-out: Wk2_7H9/glucose/ BSA/Tyloxapol MIC.
[8] abbreviates: read-out: Wk2_7H9/glucose/ casitone/ Tyloxapol MIC.

≈ marks a conversion by molar mass, not a printed value. Like-named read-outs stand apart in the source and are kept apart here. Some results are limits rather than exact numbers.

These results are taken from paper PMC11915372, “Identification of a Series Containing a Pentafluorophenyl Moiety That Targets Pks13 to Inhibit Growth of Mycobacterium tuberculosis” (ACS Infectious Diseases, 2025).

From the text for HepG2 cells: Assays to establish HepG2 cytotoxicity, in vitro microsomal/hepatocyte metabolic stability, aqueous kinetic solubility, and in vivo pharmacokinetic profiles were all performed as previously described.[15],[35]−[37]

For the compound `CN(C)c1ncnc2oc(-c3c(F)c(F)c(F)c(F)c3F)nc12` [Compound 6, CN(C)c1ncnc2oc(nc12)-c1c(c(c(c(c1F)F)F)F)F], the “Hepatocyte Cli” value in data set [1] (mouse) is >50 mL/min/g. Moreover, the “Mouse Heps Cl” value in data set [1] (mouse, hepatocytes) is reported as >50 mLmin/g. Moreover, the “Microsomal Cli” value in data set [2] (CD1, mouse) is >50 mL/min/g. Further, in data set [2] (mouse, microsomes), the “Mouse micro Cl” value is reported as >50 mLmin/g. Moreover, in the data set with HepG2 cells (setting [3]), the IC50 was > 100 µM. Moreover, the solubility kinetic was found to be 1 µM (≈ 0.33 µg/mL) in “physchem” (setting [4]) and 1.0 µM (≈ 0.33 µg/mL) in “physchem” (read-out: Kin. Sol). The MIC in the data set with M. tuberculosis (H37Rv) (read-out: H37Rv MIC A) was 0.2 µM (≈ 0.066 µg/mL); in the data set on M. tuberculosis (H37Rv) (read-out: H37Rv MIC B), 1.4 µM (≈ 0.462 µg/mL); with M. tuberculosis (H37Rv) (setting [5]) it was 0.2 µM (≈ 0.066 µg/mL); in the data set with M. tuberculosis (H37Rv) (setting [6]) it was 1.4 µM (≈ 0.462 µg/mL); with M. tuberculosis (H37Rv) (setting [7]), 1.4 µM (≈ 0.462 µg/mL); in the data set on M. tuberculosis (H37Rv) (setting [8]), 0.15 µM (≈ 0.0495 µg/mL).
Regarding `CCN(CC)c1ncnc2sc(-c3c(F)c(F)c(F)c(F)c3F)nc12` [Compound 8, CCN(CC)c1ncnc2sc(nc12)-c1c(c(c(c(c1F)F)F)F)F], the “Microsomal Cli” value in data set [2] (CD1, mouse) is recorded as 26 mL/min/g. Also, in data set [2] (mouse, microsomes), the “Mouse micro Cl” value is 26 mLmin/g. Also, the IC50 with HepG2 cells (setting [3]) is > 100 µM. Moreover, the solubility kinetic worked out at 0.142 µM (≈ 0.0532 µg/mL) in the data set “physchem” (setting [4]) and 0.1 µM (≈ 0.0374 µg/mL) in “physchem” (water, kinetic from dmso stock). Moreover, the MIC in the data set with M. tuberculosis (H37Rv) (read-out: H37Rv MIC A) turned out to be 0.3 µM (≈ 0.112 µg/mL); in the data set on M. tuberculosis (H37Rv) (read-out: H37Rv MIC B) it was 0.78 µM (≈ 0.292 µg/mL); in the data set with M. tuberculosis (H37Rv) (setting [5]), 0.3 µM (≈ 0.112 µg/mL); in the data set with M. tuberculosis (H37Rv) (setting [6]) it was 0.8 µM (≈ 0.299 µg/mL); with M. tuberculosis (H37Rv) (setting [7]), 0.8 µM (≈ 0.299 µg/mL); in the data set on M. tuberculosis (H37Rv) (setting [8]), 0.4 µM (≈ 0.15 µg/mL).
As to `Fc1c(F)c(F)c(-c2nc3c(N4CCOCC4)ncnc3s2)c(F)c1F` [Compound 9, Fc1c(c(c(c(c1F)F)-c1nc2c(ncnc2s1)N1CCOCC1)F)F], the “Microsomal Cli” value in data set [2] (CD1, mouse) stood at 43 mL/min/g. Further, the “Mouse micro Cl” value in data set [2] (mouse, microsomes) amounted to 43 mLmin/g. Also, the IC50 in the data set with HepG2 cells (setting [3]) is > 100 µM. Besides, the solubility kinetic in the data set “physchem” (setting [4]) and in the data set “physchem” (read-out: Kin. Sol) was 2.8 µM (≈ 1.09 µg/mL) in each case. Moreover, the MIC in the data set on M. tuberculosis (H37Rv) (read-out: H37Rv MIC B) was found to be 0.6 µM (≈ 0.233 µg/mL); in the data set on M. tuberculosis (H37Rv) (setting [6]), 0.6 µM (≈ 0.233 µg/mL); in the data set with M. tuberculosis (H37Rv) (setting [7]), 0.6 µM (≈ 0.233 µg/mL); with M. tuberculosis (H37Rv) (setting [8]), 0.07 µM (≈ 0.0272 µg/mL).
Turning to `Fc1c(F)c(F)c(-c2nc3c(N4CCOCC4)ncnc3o2)c(F)c1F` [Compound 10, Fc1c(c(c(c(c1F)F)-c1nc2c(ncnc2o1)N1CCOCC1)F)F], the “Mouse Heps Cl” value in data set [1] (intrinsic clearance (Cli), mouse hepatocytes, Tables 1-4) is >50 mLmin/g. Besides, the “Hepatocyte Cli” value in data set [1] (supplement data table) is >50 mL/min/g. Further, the “Mouse micro Cl” value in data set [2] (intrinsic clearance (Cli), CD1 mouse liver microsomes, Tables 1-4) was 44 mLmin/g. The “Microsomal Cli” value in data set [2] (supplement data table) came to 44 mL/min/g. Besides, the IC50 with HepG2 cells (setting [3]) worked out at 49 µM; in the data set with HepG2 cells (HepG2, read-out: Hs-HEPG IC50) it was 48 µM. The solubility kinetic came out at 13.6 µM (≈ 5.06 µg/mL) in the data set “physchem” (kinetic from dmso stock, kinetic solubility in water, read-out: Kin. Sol) and 14 µM (≈ 5.21 µg/mL) in “physchem” (pH 7.4, aqueous buffer, kinetic from dmso stock, pH7.4, read-out: Kinetic Solubility pH7.4). Also, the MIC in the data set with M. tuberculosis (H37Rv) (read-out: H37Rv MIC A) came to 0.2 µM (≈ 0.0745 µg/mL); with M. tuberculosis (H37Rv) (read-out: H37Rv MIC B) it was 1.2 µM (≈ 0.447 µg/mL); in the data set on M. tuberculosis (H37Rv) (setting [5]), 0.2 µM (≈ 0.0745 µg/mL); in the data set on M. tuberculosis (H37Rv) (setting [6]) it was 1.2 µM (≈ 0.447 µg/mL); in the data set on M. tuberculosis (H37Rv) (setting [7]) it was 1.2 µM (≈ 0.447 µg/mL); in the data set with M. tuberculosis (H37Rv) (setting [8]), 0.15 µM (≈ 0.0558 µg/mL).
As for `Fc1c(F)c(F)c(-c2nc3cncnc3s2)c(F)c1F` [Compound 11, Fc1c(c(c(c(c1F)F)-c1nc2cncnc2s1)F)F], in data set [2] (CD1, mouse), the “Microsomal Cli” value is reported as 18 mL/min/g. The “Mouse micro Cl” value in data set [2] (mouse, microsomes) came out at 18 mLmin/g. In the data set with HepG2 cells (setting [3]), the IC50 came to 35 µM. For the same compound, the solubility kinetic in “physchem” (setting [4]) and in “physchem” (read-out: Kin. Sol) was 103 µM (≈ 31.2 µg/mL) each time. Further, the MIC in the data set with M. tuberculosis (H37Rv) (read-out: H37Rv MIC A) stood at 0.34 µM (≈ 0.103 µg/mL); in the data set with M. tuberculosis (H37Rv) (read-out: H37Rv MIC B), 6.3 µM (≈ 1.91 µg/mL); in the data set on M. tuberculosis (H37Rv) (setting [5]), 0.342 µM (≈ 0.104 µg/mL); in the data set with M. tuberculosis (H37Rv) (setting [6]), 6.3 µM (≈ 1.91 µg/mL); in the data set with M. tuberculosis (H37Rv) (setting [7]) it was 4.7 µM (≈ 1.43 µg/mL); with M. tuberculosis (H37Rv) (setting [8]), 0.279 µM (≈ 0.0846 µg/mL).
For `CNc1ncnc2oc(-c3c(F)c(F)c(F)c(F)c3F)nc12` [Compound 12, CNc1ncnc2oc(nc12)-c1c(c(c(c(c1F)F)F)F)F], in data set [1] (mouse), the “Hepatocyte Cli” value turned out to be 4.7 mL/min/g. The “Mouse Heps Cl” value in data set [1] (mouse, hepatocytes) is 4.7 mLmin/g. Moreover, the “Microsomal Cli” value in data set [2] (CD1, mouse) is recorded as <0.5 mL/min/g. Moreover, in data set [2] (mouse, microsomes), the “Mouse micro Cl” value worked out at 0.5 mLmin/g. Moreover, the IC50 in the data set with HepG2 cells (setting [3]) was > 100 µM. Besides, the solubility kinetic in the data set “physchem” (setting [4]) is 227 µM (≈ 71.8 µg/mL); in the data set “physchem” (read-out: Kin. Sol), 228 µM (≈ 72.1 µg/mL). Further, the MIC in the data set with M. tuberculosis (H37Rv) (read-out: H37Rv MIC A), in the data set on M. tuberculosis (H37Rv) (read-out: H37Rv MIC B), in the data set on M. tuberculosis (H37Rv) (setting [5]), in the data set with M. tuberculosis (H37Rv) (setting [6]), in the data set with M. tuberculosis (H37Rv) (setting [7]) and in the data set on M. tuberculosis (H37Rv) (setting [8]) was > 50 µM in each case.
